Assay results reported in patent publication US6057450A, “Derivatives of pyroglutaminic acid preparation process and applications” (Totiam, S.L., priority 1994, dated 2000).

Legend:
human lymphocytes = experiment: in vitro non-specific lymphoproliferative response (RLP-I) to PHA, human lymphocyte cultures; type: cell-based; settings: for RLP-I B < A, number of witness models / RLP-I B < A, percentage of witness models / RLP-I B > A, number of witness models / RLP-I B > A, percentage of witness models: Table V, PHA + BRM-BLAS (B) versus PHA (A); for number of cases with RLP-I B > A in 33-50% of the witness models / number of cases with RLP-I B > A in 67% of the witness models / number of cases with RLP-I B > A in 100% of the witness models / percentage of cases with RLP-I B > A in 33-50% of the witness models / percentage of cases with RLP-I B > A in 67% of the witness models / percentage of cases with RLP-I B > A in 100% of the witness models: Table VI, intragroup individual analysis
Procedure: The "in vitro" lymphocyte response has been assessed in samples of circulating and peripheral venous blood from asymptomatic blood donor adults of both sexes. In general, the lymphocyte cultures include in each case six experimental models called witnesses, and incorporate progressive doses between 0.25-6.0 units (20-500 ng) of the BRM-BLAS compounds and PHA. The RLP-I of each one has been morphologically determined and is expressed in absolute values of lymphoblasts/10,000.
Systematically, in all the cases it has been tabulated the RLP-I to the PHA, basal, of the PHA models; to the PHA+BRM-BLAS, of the "witness" models and the maximum individual response of the witness models (RMC), in each case.

[1] = test system: circulating peripheral blood lymphocytes; experiment: in vivo lymphocyte kinetics / response in asymptomatic rabbits; set-up: species or system New Zealand's albino, giant rabbits
From the text: (§1) The pharmacodynamic study to assess the leuko-lymphocyte kinetics has been carried out in New Zealand's albino, giant, female, adult, asymptomatic (healthy) rabbits. The blood samples with EDTA (ethylene-diamino-tetraAcetic acid), non-coagulable, for the periodical weekly controls, have been obtained by aseptic puncture from the marginal vein of the outer ear. The count and the differential cytologic survey of the white series has been routinely performed in a "Coulter" (Coulter Cientifica, S.A., STKs model) differential analyzer, within the two hours following the extraction.
Hereinafter, there is a summary of the most significant results of the preclinical protocols which include different experimental conditions, different BRM-BLAS products and doses which vary in vary of their concentration of the product, frequency and number. […]
This study comprises three concatenated experimental situations. The first one is focused on the vicissitudes of the leuko-lymphocyte kinetics occurred during a pause, "first" moment, that takes place months after several doses, mainly of BRM-BLAS 236 (Cl) compounds and includes 30 individual assessments (6 of the group) days 0 to 39. The second "second" moment, is centered on the successive changes occurred after the administration on the 39th day of an intravenous dose of 8 u/Kg (0.6 mcg/Kg) of the BRM-BLAS 278 (Ac) compounds and includes a total of 25 individual assessments (5 of the group), days 43rd to 68th. The third one, moments "third" to "seventh", analyzes the changes induced after the intravenous administration on the 68th day of 22 u/Kg (1.8 mcg/Kg) of BRM-BLAS 320 (Ac) compounds and includes […] (6 of the group×5 times), days 75th to 287th of the study. The assessment prior to the last dose, the lymphocyte average of which is the lowest of the group during the study, has been selected as the common baseline (100%) for reference of the comparative analysis between the assessments.

Swiss mice = experiment: single-dose intraperitoneal toxicity in mice; settings: i.p. single dose; 236 (Cl) 800 mcg/Kg, 278 (Ac) 4.2 mg/Kg, 320 (Ac) 4.8 mg/Kg, respectively
[2] = test system: circulating peripheral blood leukocytes; experiment: in vivo leukocyte kinetics / response in asymptomatic rabbits; set-up: species or system New Zealand's albino, giant rabbits; settings: s.c. 30 u/Kg
From the text: as §1
Hereinafter, there is a summary of the most significant results of the preclinical protocols which include different experimental conditions, different BRM-BLAS products and doses which vary in vary of their concentration of the product, frequency and number.
The leuko-lymphocyte mean values of the group run parallelly during the study, in general above the respective basal values before the treatment to which they return in the last two assessments. They reach the higher ones 7, 16 and 20 days after the first, second and third dose, FIG. 12, FIG. 13 and Table VIII (assessments: 3, 8 and 13).
A total number of 225 individual assessments and 45 of the group assessments have been performed, grouped in four evolutive periods moments. The "first" one includes the 40 individual assessments (8 of the group) after the two first doses, days 0 to 43rd; the "second", the 85 (17 of the group) after the third, fourth and fifth doses, days 46th to 147th; the "third", the first 50 (10 of the group) after the sixth, days 153rd to 213th, and the "fourth", the last 50 (10 of the group), days 220th to 282nd, respectively. The assessment of the group prior to the third dose (43rd day), the lymphocyte mean of which has been the lowest during the survey, has been taken as the natural reference baseline for the comparative analysis of punctual and grouped data.
This trail is subsequent to the protocol previously described and corresponds to the "fifth" moment of the global study, FIG. 14 and FIG. 15.
After the subcutaneous administration of a dose of 30 u/Kg (2.1 mcg/Kg) of the BRM-BLAS 278 (Cl) compounds 137 days after the sixth dose of the BRM-BLAS 320 (Ac) compounds, in the presence of high figures of the lymphocyte mean of the group, at the "fourth" moment, such figures were specifically exceeded by the 4th and 5th punctual weekly assessments of the "fifth" moment, 24th (184%) and 31st (180%) days, respectively, FIG. 14. Globally, 28% of the assessment exceed basal values by one or two standard deviations; 57% in three, and the difference is statistically in all of them. The resulting mean of the data gathered for the "fifth" moment with a 158% of the basal values, exceed those of the four previous moments, and the difference is statistically significant compared with those of the "first", "second" and "third", and exceeds that of the "first" in more than one standard deviation, FIG. 15 and (Table IX). […]

patients = settings: cited from earlier work; for effect on circulating granulocytes: cancer patients in the absence of a myelodepression

CC(=O)N1C(=O)C(N)(C[n+]2ccccc2)CC1C(=O)O (centres unmarked) [BRM-BLAS 278 (Ac), 1-acetyl-4-amino-4-(1-pyridiniomethyl) pyroglutamic acid acetate]
RLP-I B < A, number of witness models (human lymphocytes): 14 Num.
RLP-I B < A, percentage of witness models (human lymphocytes): 26%
RLP-I B > A, number of witness models (human lymphocytes): 40 Num.
RLP-I B > A, percentage of witness models (human lymphocytes): 74%
number of cases with RLP-I B > A in 33-50% of the witness models (human lymphocytes): 9 Num.
number of cases with RLP-I B > A in 67% of the witness models (human lymphocytes): 6 Num.
number of cases with RLP-I B > A in 100% of the witness models (human lymphocytes): 3 Num.
percentage of cases with RLP-I B > A in 33-50% of the witness models (human lymphocytes): 100%
percentage of cases with RLP-I B > A in 67% of the witness models (human lymphocytes): 67%
percentage of cases with RLP-I B > A in 100% of the witness models (human lymphocytes): 33%
lymphocyte group mean after low dose ([1]; single i.v. low dose 8 u/Kg (0.6 mcg/Kg), fifth assessment): the group mean in the fifth assessment appears in the basal line of the histogram
tolerance / toxicity, single dose (Swiss mice): perfectly tolerated without evidences of toxicity

CC(=O)NC1(C[n+]2ccccc2)CC(C(=O)O)N(C(C)=O)C1=O (centres unmarked) [BRM-BLAS 320 (Cl), 1-acetyl-4-acetylamino-4-(1-pyridiniomethyl) pyroglutamic acid chloride]
RLP-I B < A, number of witness models (human lymphocytes): 29 Num.
RLP-I B < A, percentage of witness models (human lymphocytes): 30%
RLP-I B > A, number of witness models (human lymphocytes): 67 Num.
RLP-I B > A, percentage of witness models (human lymphocytes): 70%
number of cases with RLP-I B > A in 33-50% of the witness models (human lymphocytes): 16 Num.
number of cases with RLP-I B > A in 67% of the witness models (human lymphocytes): 11 Num.
number of cases with RLP-I B > A in 100% of the witness models (human lymphocytes): 2 Num.
percentage of cases with RLP-I B > A in 33-50% of the witness models (human lymphocytes): 100%
percentage of cases with RLP-I B > A in 67% of the witness models (human lymphocytes): 69%
percentage of cases with RLP-I B > A in 100% of the witness models (human lymphocytes): 13%

CC(=O)N1C(=O)C(N)(C[n+]2ccccc2)CC1C(=O)O (centres unmarked) [BRM-BLAS 278 (Cl), 1-acetyl-4-ammonium-4-(1-pyridiniomethyl) pyroglutamic acid dichloride]
RLP-I B < A, number of witness models (human lymphocytes): 16 Num.
RLP-I B < A, percentage of witness models (human lymphocytes): 17%
RLP-I B > A, number of witness models (human lymphocytes): 77 Num.
RLP-I B > A, percentage of witness models (human lymphocytes): 83%
number of cases with RLP-I B > A in 33-50% of the witness models (human lymphocytes): 16 Num.
number of cases with RLP-I B > A in 67% of the witness models (human lymphocytes): 13 Num.
number of cases with RLP-I B > A in 100% of the witness models (human lymphocytes): 6 Num.
percentage of cases with RLP-I B > A in 33-50% of the witness models (human lymphocytes): 100%
percentage of cases with RLP-I B > A in 67% of the witness models (human lymphocytes): 81%
percentage of cases with RLP-I B > A in 100% of the witness models (human lymphocytes): 37%
animals with lymphocyte mean "fifth" versus "first" moment higher than three standard deviations ([1]; s.c. 30 u/Kg): 80%
animals with lymphocyte mean "fifth" versus "first" moment higher than two standard deviations ([1]; s.c. 30 u/Kg): 20%
grouped lymphocyte mean versus basal, "fifth" moment ([1]; s.c. 30 u/Kg, "fifth" moment): 158%
lymphocyte mean versus basal, 24th day ([1]; s.c. dose 30 u/Kg (2.1 mcg/Kg) 137 days after BRM-BLAS 320 (Ac), 24th day, "fifth" moment): 184%
lymphocyte mean versus basal, 31st day ([1]; s.c. dose 30 u/Kg (2.1 mcg/Kg) 137 days after BRM-BLAS 320 (Ac), 31st day, "fifth" moment): 180%
animals with leukocyte mean at "fifth" exceeding "first" moment by more than two standard deviations [2]: 40%
assessments with leukocyte mean exceeding basal by one standard deviation ([2]; "fifth" moment): 57%
assessments with statistically significant leukocyte difference ([2]; "fifth" moment): 29%

NC1(C[n+]2ccccc2)CC(C(=O)O)NC1=O (centres unmarked) [BRM-BLAS 236 (Ac), 4-amino-4-(1-pyridiniomethyl) pyroglutamic acid acetate]
RLP-I B < A, number of witness models (human lymphocytes; acetate): 17 Num.
RLP-I B < A, percentage of witness models (human lymphocytes; acetate): 19%
RLP-I B > A, number of witness models (human lymphocytes; acetate): 73 Num.
RLP-I B > A, percentage of witness models (human lymphocytes; acetate): 81%
number of cases with RLP-I B > A in 67% of the witness models (human lymphocytes): 12 Num.
percentage of cases with RLP-I B > A in 33-50% of the witness models (human lymphocytes): 100%
percentage of cases with RLP-I B > A in 67% of the witness models (human lymphocytes): 82%
number of cases with RLP-I B > A in 33-50% of the witness models (human lymphocytes; acetate): 15 Num.
number of cases with RLP-I B > A in 100% of the witness models (human lymphocytes; acetate): 6 Num.
percentage of cases with RLP-I B > A in 100% of the witness models (human lymphocytes; acetate): 40%

rhMG-CSF: recombinant human Macrophage Granulocyte Colony Stimulating Factor
duration of the neutropenia (patients; administration prior to chemotherapy): notably reduces the duration of the neutropenia
effect on circulating granulocytes (patients): neutrophiles and eosinophile
side effects (patients; human, in vivo): fever, bone ache, pericarditis, hypotension
deaths from sepsis (patients; patients who received rhMG-CSF): 2 out of 14
systemic bacterial and viral infections (patients; severe chronic neutropenia or after transplant of bone marrow): drastically decreases systemic bacterial and viral infections

B1: rhG-CSF: recombinant human Granulocyte Colony Stimulating Factor (protein, UniProt P09919 31-207, looked up)
Granulocyte …: TPLGPASSLPQSFLLKCLEQVRKIQGDGAALQEKLVSECATYKLCHPEELVLLGHSLGIPWAPLSSCPSQALQLAGCLSQLHSGLFLYQGLLQALEGISPELGPTLDTLQLDVADFATTIWQQMEELGMAPALQPTQGAMPAFASAFQRRAGGVLVASHLQSFLEVSYRVLRHLAQP
effect on circulating granulocytes (patients): great increase in the number of circulating (peripheral blood) polymorphonuclear neutrophile
